Results reported in patent US8785460B2, “Tricyclic compounds and use thereof” (Takeda Pharmaceutical Company Limited, priority 2008, dated 2014).

Compound | melting point
CCC(OC(C)=O)c1ccc(Cl)c2nc3n(c12)CCCN3c1ccc(OC)nc1C (single isomer, unassigned; (+)) [Example 267, (+)-1-[9-Chloro-1-(6-methoxy-2-methylpyridin-3-yl)-1,2,3,4-tetrahydropyrimido[1,2-a]benzimidazol-6-yl]propyl acetate] | 110 to 114 °C
CCC(O)c1ccc(Cl)c2nc3n(c12)CCCN3c1ccc(Cl)cc1Cl (single isomer, unassigned; (+)) [Example 439, (+)-1-[9-Chloro-1-(2,4-dichlorophenyl)-1,2,3,4-tetrahydropyrimido[1,2-a]benzimidazol-6-yl]propan-1-ol] | 233 to 235 °C
CCC(O)c1ccc(Cl)c2nc3n(c12)CCCN3c1ccc(Cl)cc1Cl (single isomer, unassigned; (-)) [Example 438, (−)-1-[9-Chloro-1-(2,4-dichlorophenyl)-1,2,3,4-tetrahydropyrimido[1,2-a]benzimidazol-6-yl]propan-1-ol] | 221 to 223 °C
CCN(CC)c1cccc2nc3n(c12)CCC(=O)N3c1ccc(Cl)cc1Cl [Example 19, 1-(2,4-Dichlorophenyl)-6-(diethylamino)-3,4-dihydropyrimido[1,2-a]benzimidazol-2(1H)-one] | 113 to 114 °C
CCN(CC)c1cccc2nc3n(c12)CCCN3c1ccc(Cl)cc1Cl [Example 20, 1-(2,4-Dichlorophenyl)-N,N-diethyl-1,2,3,4-tetrahydropyrimido[1,2-a]benzimidazol-6-amine] | 131 to 133 °C
CCN(CC)c1cccc2nc3n(c12)CC(CC(=O)OC)N3c1ccc(Cl)cc1Cl (centres unmarked) [Example 72, Methyl [1-(2,4-dichlorophenyl)-5-(diethylamino)-2,3-dihydro-1H-imidazo[1,2-a]benzimidazol-2-yl]acetate] | 137 to 138 °C
CCN(CC)c1cccc2nc3n(c12)CC(CC(=O)O)N3c1ccc(Cl)cc1Cl (centres unmarked) [Example 73, [1-(2,4-Dichlorophenyl)-5-(diethylamino)-2,3-dihydro-1H-imidazo[1,2-a]benzimidazol-2-yl]acetic acid] | 249 to 251 °C
NC(=O)c1cccc2nc3n(c12)CCCN3c1ccc(Cl)cc1Cl [Example 83, 1-(2,4-Dichlorophenyl)-1,2,3,4-tetrahydropyrimido[1,2-a]benzimidazole-6-carboxamide] | 198 to 200 °C
N#Cc1cccc2nc3n(c12)CCCN3c1ccc(Cl)cc1Cl [Example 84, 1-(2,4-Dichlorophenyl)-1,2,3,4-tetrahydropyrimido[1,2-a]benzimidazole-6-carbonitrile] | 170 to 171 °C
CN(C)C(=O)c1cccc2nc3n(c12)CCCN3c1ccc(Cl)cc1Cl [Example 86, 1-(2,4-Dichlorophenyl)-N,N-dimethyl-1,2,3,4-tetrahydropyrimido[1,2-a]benzimidazole-6-carboxamide] | 212 to 213 °C
CN(C)Cc1cccc2nc3n(c12)CCCN3c1ccc(Cl)cc1Cl [Example 87, 1-[1-(2,4-Dichlorophenyl)-1,2,3,4-tetrahydropyrimido[1,2-a]benzimidazol-6-yl]-N,N-dimethylmethanamine] | 158 to 159 °C
CCN(CC)C(=O)c1cccc2nc3n(c12)CCCN3c1ccc(Cl)cc1Cl [Example 88, 1-(2,4-Dichlorophenyl)-N,N-diethyl-1,2,3,4-tetrahydropyrimido[1,2-a]benzimidazole-6-carboxamide] | 183 to 184 °C
CCN(CC)Cc1cccc2nc3n(c12)CCCN3c1ccc(Cl)cc1Cl [Example 89, N-{[1-(2,4-Dichlorophenyl)-1,2,3,4-tetrahydropyrimido[1,2-a]benzimidazol-6-yl]methyl}-N-ethylethanamine] | 112 to 114 °C
O=C(c1cccc2nc3n(c12)CCCN3c1ccc(Cl)cc1Cl)N1CC(O)C1 [Example 90, 1-{[1-(2,4-Dichlorophenyl)-1,2,3,4-tetrahydropyrimido[1,2-a]benzimidazol-6-yl]carbonyl}azetidin-3-ol] | 257 to 258 °C
